This note sets out measurements from patent US10487092B2, “Pyrazolopyridinamines as MKNK1 and MKNK2 inhibitors” (BAYER PHARMA AKTIENGESELLSCHAFT, priority 2014, dated 2019).

Broadly, the IC50 is the concentration that gives 50% inhibition.

Some results are limits rather than exact numbers.

human full-length MKNK1, sequence (Q9BUB5 other isoform, or with tags, fused parts or gaps T344D): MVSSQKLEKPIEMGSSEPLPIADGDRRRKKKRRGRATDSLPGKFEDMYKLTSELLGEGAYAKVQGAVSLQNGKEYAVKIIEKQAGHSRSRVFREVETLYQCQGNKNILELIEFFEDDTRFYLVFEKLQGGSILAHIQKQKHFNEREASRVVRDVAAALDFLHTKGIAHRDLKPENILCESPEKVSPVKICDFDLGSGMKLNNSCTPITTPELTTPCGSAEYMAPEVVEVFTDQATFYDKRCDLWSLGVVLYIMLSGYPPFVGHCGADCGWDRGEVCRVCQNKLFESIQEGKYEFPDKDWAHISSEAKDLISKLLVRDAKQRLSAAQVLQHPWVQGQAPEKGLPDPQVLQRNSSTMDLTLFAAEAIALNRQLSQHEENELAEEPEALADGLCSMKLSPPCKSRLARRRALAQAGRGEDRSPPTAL

The target in this test is human full-length MKNK1 (Homo sapiens (Human), UniProt Q9BUB5, T344D). Nature of the test: MKNK1 kinase high ATP assay (TR-FRET). To be noted: high ATP (2 mM), 15 min preincubation with enzyme; read-out: MKNK1 IC50. It is filed as biochemical. The essentials:
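GST-tagged full-length MKNK1 (aa 1–424, T344D; insect-cell expressed) preincubated 15 min with compound, then reacted 30 min at 22 °C with 2 mM ATP and 0.06 μM biotinylated peptide (final) in HEPES pH 7.5 buffer. Phosphopeptide detected by TR-FRET 665/620 ratio, normalized to no-inhibitor and no-enzyme controls.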
As to `CCCCN(C)C(=O)[C@H]1CCc2c(sc3ncnc(Nc4cc5ccnn5cc4OC)c23)C1` [Example 97, (7S)—N-Butyl-4-[(6-methoxypyrazolo[1,5-a]pyridin-5-yl)amino]-N-methyl-5,6,7,8-tetrahydro[1]benzothieno[2,3-d]pyrimidine-7-carboxamide], the IC50 stood at 1 nM. In the case of `COc1cn2nccc2cc1Nc1ncnc2sc3c(c12)CC[C@H](C(=O)N(C)CCCN(C)C)C3` [Example 99, (7S)—N-[3-(Dimethylamino)propyl]-4-[(6-methoxypyrazolo[1,5-a]pyridin-5-yl)amino]-N-methyl-5,6,7,8-tetrahydro[1]benzothieno[2,3-d]pyrimidine-7-carboxamide], the IC50 stood at 1 nM. The result for `COc1cn2nccc2cc1Nc1ncnc2sc3c(c12)CC[C@H](C(=O)N(C)CCN(C)C)C3` [Example 101, (7S)—N-[2-(Dimethylamino)ethyl]-4-[(6-methoxypyrazolo[1,5-a]pyridin-5-yl)amino]-N-methyl-5,6,7,8-tetrahydro[1]benzothieno[2,3-d]pyrimidine-7-carboxamide] reads 2 nM; that for `COc1cn2nccc2cc1Nc1ncnc2sc3c(c12)CC[C@H](C(=O)N(C)C(C)C)C3` [Example 105, (7S)-4-[(6-Methoxypyrazolo[1,5-a]pyridin-5-yl)amino]-N-methyl-N-(propan-2-yl)-5,6,7,8-tetrahydro[1]benzothieno[2,3-d]pyrimidine-7-carboxamide], 2 nM; that for `COc1cn2nccc2cc1Nc1ncnc2sc3c(c12)CC[C@H](C(=O)N1CC[C@H](N(C)C)C1)C3` [Example 107, [(3S)-3-(Dimethylamino)pyrrolidin-1-yl](7S)-4-[(6-methoxypyrazolo[1,5-a]pyridin-5-yl)amino]-5,6,7,8-tetrahydro[1]benzothieno[2,3-d]pyrimidin-7-ylmethanone], less than 1 nM. The result for `COc1cn2nccc2cc1Nc1ncnc2sc3c(c12)CC[C@H](C(=O)N1C[C@H](O)[C@@H](O)C1)C3` [Example 108, [(3S,4S)-3,4-Dihydroxypyrrolidin-1-yl](7S)-4-[(6-methoxypyrazolo[1,5-a]pyridin-5-yl)amino]-5,6,7,8-tetrahydro[1]benzothieno[2,3-d]pyrimidin-7-ylmethanone] reads 1 nM. The result for `COc1cn2nccc2cc1Nc1ncnc2sc3c(c12)CC[C@H](C(=O)N1CCC(N(C)C)CC1)C3` [Example 109, [4-(Dimethylamino)piperidin-1-yl](7S)-4-[(6-methoxypyrazolo[1,5-a]pyridin-5-yl)amino]-5,6,7,8-tetrahydro[1]benzothieno[2,3-d]pyrimidin-7-ylmethanone] reads 1 nM. For `COc1cn2nccc2cc1Nc1ncnc2sc3c(c12)CC[C@H](C(=O)N1CCC(N(C)CCN(C)C)CC1)C3` [Example 110], the IC50 was less than 1 nM. Take `COc1cn2nccc2cc1Nc1ncnc2sc3c(c12)CC[C@H](C(=O)N(CCO)CCCN(C)C)C3` [Example 111, (7S)—N-[3-(Dimethylamino)propyl]-N-(2-hydroxyethyl)-4-[(6-methoxypyrazolo[1,5-a]pyridin-5-yl)amino]-5,6,7,8-tetrahydro[1]benzothieno[2,3-d]pyrimidine-7-carboxamide]: the concentration for half-maximal inhibition (IC50) stood at 3 nM. `COc1cn2nccc2cc1Nc1ncnc2sc3c(c12)CC[C@H](C(=O)N1C[C@@H](C)O[C@@H](C)C1)C3` [Example 112, [(2R,6S)-2,6-Dimethylmorpholin-4-yl](7S)-4-[(6-methoxypyrazolo[1,5-a]pyridin-5-yl)amino]-5,6,7,8-tetrahydro[1]benzothieno[2,3-d]pyrimidin-7-ylmethanone]: the IC50 is 2 nM.

Take `COc1cn2nccc2cc1Nc1ncnc2sc3c(c12)CC[C@H](C(=O)N1CCN(CCN(C)C)CC1)C3` [Example 114, 4-[2-(Dimethylamino)ethyl]piperazin-1-yl(7S)-4-[(6-methoxypyrazolo[1,5-a]pyridin-5-yl)amino]-5,6,7,8-tetrahydro[1]benzothieno[2,3-d]pyrimidin-7-ylmethanone]: the IC50 is less than 1 nM. Consider `CCN(CCN(C)C)C(=O)[C@H]1CCc2c(sc3ncnc(Nc4cc5ccnn5cc4OC)c23)C1` [Example 115, (7S)—N-[2-(Dimethylamino)ethyl]-N-ethyl-4-[(6-methoxypyrazolo[1,5-a]pyridin-5-yl)amino]-5,6,7,8-tetrahydro[1]benzothieno[2,3-d]pyrimidine-7-carboxamide], for which the IC50 amounted to 1 nM. With `CCN(CCO)C(=O)[C@H]1CCc2c(sc3ncnc(Nc4cc5ccnn5cc4OC)c23)C1` [Example 117, (7S)—N-Ethyl-N-(2-hydroxyethyl)-4-[(6-methoxypyrazolo[1,5-a]pyridin-5-yl)amino]-5,6,7,8-tetrahydro[1]benzothieno[2,3-d]pyrimidine-7-carboxamide] the figure was 1 nM; with `CCN(CCOC)C(=O)[C@H]1CCc2c(sc3ncnc(Nc4cc5ccnn5cc4OC)c23)C1` [Example 118, (7S)—N-Ethyl-N-(2-methoxyethyl)-4-[(6-methoxypyrazolo[1,5-a]pyridin-5-yl)amino]-5,6,7,8-tetrahydro[1]benzothieno[2,3-d]pyrimidine-7-carboxamide], 1 nM. With `COCCN(CCOC)C(=O)[C@H]1CCc2c(sc3ncnc(Nc4cc5ccnn5cc4OC)c23)C1` [Example 119, (7S)—N,N-Bis(2-methoxyethyl)-4-[(6-methoxypyrazolo[1,5-a]pyridin-5-yl)amino]-5,6,7,8-tetrahydro[1]benzothieno[2,3-d]pyrimidine-7-carboxamide], the IC50 was less than 1 nM. With `COc1cn2nccc2cc1Nc1ncnc2sc3c(c12)CC[C@H](C(=O)N(C)C(C)(C)C)C3` [Example 120, (7S)—N-tert-Butyl-4-[(6-methoxypyrazolo[1,5-a]pyridin-5-yl)amino]-N-methyl-5,6,7,8-tetrahydro[1]benzothieno[2,3-d]pyrimidine-7-carboxamide] the figure was 5 nM; with `COc1cn2nccc2cc1Nc1ncnc2sc3c(c12)CC[C@H](C(=O)N1C[C@@H]2C[C@H]1CN2C)C3` [Example 121, (7S)-4-[(6-Methoxypyrazolo[1,5-a]pyridin-5-yl)amino]-5,6,7,8-tetrahydro[1]benzothieno[2,3-d]pyrimidin-7-yl[(1S,4S)-5-methyl-2,5-diazabicyclo[2.2.1]hept-2-yl]methanone], 1 nM.

As for `COc1cn2nccc2cc1Nc1ncnc2sc3c(c12)CC[C@H](C(=O)N1C[C@H]2C[C@@H]1CN2C)C3` [Example 122, (7S)-4-[(6-Methoxypyrazolo[1,5-a]pyridin-5-yl)amino]-5,6,7,8-tetrahydro[1]benzothieno[2,3-d]pyrimidin-7-yl[(1R,4R)-5-methyl-2,5-diazabicyclo[2.2.1]hept-2-yl]methanone], the IC50 was less than 1 nM.

In the case of `COc1cn2nccc2cc1Nc1ncnc2sc3c(c12)CC[C@H](C(=O)N1C[C@@H]2C[C@H]1CO2)C3` [Example 123, (7S)-4-[(6-Methoxypyrazolo[1,5-a]pyridin-5-yl)amino]-5,6,7,8-tetrahydro[1]benzothieno[2,3-d]pyrimidin-7-yl[(1S,4S)-2-oxa-5-azabicyclo[2.2.1]hept-5-yl]methanone], the IC50 was 2 nM. The result for `COc1cn2nccc2cc1Nc1ncnc2sc3c(c12)CC[C@H](C(=O)N1C[C@H]2C[C@@H]1CO2)C3` [Example 124, (7S)-4-[(6-Methoxypyrazolo[1,5-a]pyridin-5-yl)amino]-5,6,7,8-tetrahydro[1]benzothieno[2,3-d]pyrimidin-7-yl[(1R,4R)-2-oxa-5-azabicyclo[2.2.1]hept-5-yl]methanone] reads 1 nM; that for `COc1cn2nccc2cc1Nc1ncnc2sc3c(c12)CC[C@H](C(=O)N1CCOC[C@H]1C)C3` [Example 126, (7S)-4-[(6-Methoxypyrazolo[1,5-a]pyridin-5-yl)amino]-5,6,7,8-tetrahydro[1]benzothieno[2,3-d]pyrimidin-7-yl[(3R)-3-methylmorpholin-4-yl]methanone], 1 nM. With “(7S)-4-[(6-Chloropyrazolo[1,5-a]pyridin-5-yl)amino]-5,6,7,8-tetrahydro[1]benzothieno[2,3-d]pyrimidin-7-yl(4-[2-dimethylamino)ethyl](methyl)aminopiperidin-1-yl)methanone [Example 62]” the figure was 6 nM.
